Test results: patent US20160238590A1, “COMPOSITIONS AND METHODS RELATED TO OAT SENSITIVITY” (IMMUSANT, INC., priority 2013, published 2016)
Where no end group is shown, it is not given here. [ ]: non-standard residue; d: D form. pGlu = O=C1CC[C@@H](C(=O)O)N1

Key:
Assay type in all cases: cell-based, human
PBMC [1] = assay: IFN-γ ELISpot on PBMC of CD patients on day 6 after 3-day oats challenge; conditions: after 3-day oats challenge
From the text: (§1) Australian Caucasian HLA-DQ2.5^+ and/or HLA-DQ8^+ CD subjects were recruited by advertisement in the Coeliac Society of Victoria newsletter and all had biopsy-proven CD conforming to ESPGHAN criteria. Patients had been on strict gluten free diet for at least 4 weeks prior to commencing grain challenge. Patients underwent 3-day grain challenge with oats, barley, or combined wheat, barley, and rye muffins, and 6 days after commencement, blood was collected. Day 0 responses were not observed in the selection of patients tested, as described previously^8.
(§2) Oats challenge consisted of 100 g dry weight daily of one of three commercial brands of oats: one not tested for wheat contamination (Uncle Toby's; Oats #1), and two shown by R5 ELISA to contain less than 20 ppm wheat gluten (Tilquhilie Pudding; Oats #2 and Freedom Food; Oats #3). Barley challenge consisted of pearl barley (Ward McKenzie) cooked into a risotto (150 g dry weight daily) and the wheat challenge consisted of four 50 g slices of wheat bread daily (Baker's Delight white loaf cut to toasting thickness). The combined wheat, barley, and rye challenge consisted of muffins baked with wheat flour (White Wings), barley flour (Four Leaf Milling), and rye flour (Four Leaf Milling; 22-25 g dry weight each daily). A symptom diary based on a […] Likert scale was completed by participants daily from baseline until day 6.
(§3) Two avenin peptide libraries were utilized for epitope screening. These were designed using avenin sequences from GenBank and a customized algorithm, as previously described^9. The initial library consisted of 199 screening-grade 20 mers including all possible 12 mers (Mimotopes). This library was screened with and without tTG pre-treatment. The second library consisted of additional avenin sequences that were synthesized with glutamate substitution at sites predicted to be deamidated by published algorithms^10, 11 removing the requirement for tTG treatment. This library contained 369 screening-grade 20 mers, including all possible 12 mers (Pepscan). The second round avenin library contained wild-type and deamidated versions of the most immunogenic sequences (25 high quality 16 mers from Mimotopes). High quality peptides containing previously described immunogenic sequences from wheat, barley, and rye were used to test for cross-reactivity^8 (Pepscan). High quality hordein and avenin peptides for TCC testing and biochemical studies were ordered from Pepscan, Mimotopes, or GL Biochem.
(§4) Peripheral blood mononuclear cells (PBMC) were isolated from heparinized whole blood using Ficoll-Paque™ Plus density-gradient centrifugation (GE Healthcare). IFN-γ ELISpot (Mabtech) was set up as previously described^8.

Patient 14 TCC-01 = assay: IFN-γ ELISpot with T cell clone; conditions: TCC Patient 14 TCC-01 (Table 5); mean no antigen 11.3, high background, SFU >25 considered as positive responses
Method: as §4
(§5) Isolation of TCC from CD patients was carried out as previously described^8. Briefly, CFSE-labeled PBMC were incubated with antigen for 7 days in IMDM supplemented with 5% heat-inactivated pooled human serum (PHS), 2 mM GlutaMAX™, 100 μM MEM non-essential amino acids (both from Gibco, Invitrogen), and 50 μM 2-mercaptoethanol (Sigma). Proliferated cells were single-cell sorted into 96-well plates containing IL-2, IL-4, anti-CD3 mAb, irradiated feeder cells (allogeneic PBMC and JY-EBV). TCC were expanded and maintained in IL-2 and IL-4 and tested for specificity by ELISpot with irradiated HLA-matched PBMC as antigen-presenting cells. Expanded clones were tested for HLA-DQ restriction, TCR Vbeta usage, and with lysine scans to work out minimal epitopes. See Table 1 below for TCC and epitope information.

Patient 2 TCC-01 = assay: IFN-γ ELISpot with T cell clone; conditions: TCC Patient 2 TCC-01 (Table 5); mean no antigen 1.1
Method: as §4, §5

Patient 6 TCC-01 = assay: IFN-γ ELISpot with T cell clone; conditions: TCC Patient 6 TCC-01 (Table 5); mean no antigen 2
Method: as §4, §5

PBMC [2] = assay: IFN-γ ELISpot on PBMC of CD patients after 3-day barley challenge; conditions: after barley challenge
From the text: as §1, §2, §3, §4

Substance | IFN-γ ELISpot response (raw SFU) (PBMC [1]; patient P1, peptide 1 μg/ml) [SFU] | IFN-γ ELISpot response (raw SFU) (PBMC [1]; patient P1, peptide 10 μg/ml) [SFU] | significant SFU as a percentage of maximal peptide SFU (PBMC [1]; patient P1, peptide 10 μg/ml) | IFN-γ ELISpot response (raw SFU) (PBMC [1]; patient P1, peptide 100 μg/ml) [SFU] | IFN-γ ELISpot response (raw SFU) (PBMC [1]; patient P2, peptide 1 μg/ml) [SFU] | IFN-γ ELISpot response (raw SFU) (PBMC [1]; patient P2, peptide 10 μg/ml) [SFU] | IFN-γ ELISpot response (raw SFU) (PBMC [1]; patient P2, peptide 100 μg/ml) [SFU] | significant SFU as a percentage of maximal peptide SFU (PBMC [1]; patient P2, peptide 100 μg/ml) | IFN-γ ELISpot response (raw SFU) (PBMC [1]; patient P3, peptide 1 μg/ml) [SFU] | IFN-γ ELISpot response (raw SFU) (PBMC [1]; patient P3, peptide 10 μg/ml) [SFU] | IFN-γ ELISpot response (raw SFU) (PBMC [1]; patient P3, peptide 100 μg/ml) [SFU] | IFN-γ ELISpot response (raw SFU) (PBMC [1]; patient P11, peptide 1 μg/ml) [SFU] | IFN-γ ELISpot response (raw SFU) (PBMC [1]; patient P11, peptide 10 μg/ml) [SFU] | IFN-γ ELISpot response (raw SFU) (PBMC [1]; patient P11, peptide 100 μg/ml) [SFU] | IFN-γ ELISpot response (raw SFU) (PBMC [1]; patient P12, peptide 1 μg/ml) [SFU] | IFN-γ ELISpot response (raw SFU) (PBMC [1]; patient P12, peptide 10 μg/ml) [SFU] | IFN-γ ELISpot response (raw SFU) (PBMC [1]; patient P12, peptide 100 μg/ml) [SFU] | IFN-γ ELISpot response (raw SFU) (Patient 14 TCC-01) [SFU] | IFN-γ ELISpot response (raw SFU) (Patient 2 TCC-01) [SFU] | IFN-γ ELISpot response (raw SFU) (Patient 6 TCC-01) [SFU] | further results
QYQPYPEQQQPILQQQ [avenin peptide, Genbank AAB32025 (7-22), wild-type] | 2 | 11 | * (*: 20-40%) | 11 | 2 | 10 | 23 | ** (**: 40-70%) | 1 | 25 | 4 | 2 | 11 | 4 | 1 | 3 | 7 | 22 | 79 | 3 | significant SFU as a percentage of maximal peptide SFU (PBMC [1]; patient P1, peptide 100 μg/ml): * (*: 20-40%); significant SFU as a percentage of maximal peptide SFU (PBMC [1]; patient P3, peptide 10 μg/ml): ** (**: 40-70%); significant SFU as a percentage of maximal peptide SFU (PBMC [1]; patient P11, peptide 10 μg/ml): (^: 10-20%); significant SFU as a percentage of maximal peptide SFU (PBMC [1]; patient P11, peptide 100 μg/ml): ** (**: 40-70%); IFN-γ ELISpot response (raw SFU) (PBMC [1]; patient P13, peptide 50 μg/ml): 2 SFU
PEQPFPEQPQPYPQQP [barley peptide, AFM77740.1 (25-40) [Q26 to E, Q31 to E]] |  |  |  |  |  |  |  |  |  |  |  |  |  |  |  |  |  | 66 | 202 | 73 | 
pEPEQTFPEQPQLPF ([pGlu]PEQTFPEQPQLPF) [wheat peptide, AAK84780.1 (5-18) [Q5 to pyroglutamate, Q7 to E, Q12 to E], reference compound] |  |  |  |  |  |  |  |  |  |  |  |  |  |  |  |  |  | 33 | 2 | 11 | 
pEQPFTQPEQPTPIQ ([pGlu]QPFTQPEQPTPIQ) [wheat peptide, AAG17702.1 (78-91) [Q78 to pyroglutamate, Q85 to E], reference compound] |  |  |  |  |  |  |  |  |  |  |  |  |  |  |  |  |  | 13 | 0 | 65 | 
SEQYQPYPEQEQPFVQ [deamidated avenin peptide containing DQ2.5-ave-1b] | 24 | 18 | ** (**: 40-70%) | 10 | 5 | 9 | 24 | ** (**: 40-70%) | 4 | 7 | 2 | 0 | 3 | 0 | 2 | 4 | 2 | 10 | 295 | 12 | significant SFU as a percentage of maximal peptide SFU (PBMC [1]; patient P1, peptide 1 μg/ml): *** (***: >70%); IFN-γ ELISpot response (raw SFU) (PBMC [1]; patient P13, peptide 50 μg/ml): 13 SFU; significant SFU as a percentage of maximal peptide SFU (PBMC [1]; patient P13, peptide 50 μg/ml): * (*: 20-40%); IFN-γ ELISpot response (raw SFU) (PBMC [2]; Patient 1, peptide 50 μg/ml): 77 SFU; significant SFU as a percentage of maximal peptide SFU (PBMC [2]; Patient 1, peptide 50 μg/ml): * (*: 20-40%); IFN-γ ELISpot response (raw SFU) (PBMC [2]; Patient 2, peptide 50 μg/ml): 225 SFU; significant SFU as a percentage of maximal peptide SFU (PBMC [2]; Patient 2, peptide 50 μg/ml): *** (***: >70%); IFN-γ ELISpot response (raw SFU) (PBMC [2]; Patient 3, peptide 50 μg/ml): 36 SFU; significant SFU as a percentage of maximal peptide SFU (PBMC [2]; Patient 3, peptide 50 μg/ml): * (*: 20-40%)
pEPEQPFPEQPQQII ([pGlu]PEQPFPEQPQQII) [rye peptide, AAB58403.1 (187-200) [Q187 to pyroglutamate, Q189 to E, Q194 to E], reference compound] |  |  |  |  |  |  |  |  |  |  |  |  |  |  |  |  |  | 58 | 0 | 0 | 
